Laboratory results: patent publication US6469013B2, “Therapeutic compounds” (Parker Hughes Institute, priority 1998, dated 2002)
Where two headings read alike, the source gives them in different places.

Columns and labels:
[1] = tested on: NALM-6 human leukemia cells; assay: Mitochondrial membrane potential (DiIC1, JC-1 flow cytometry); assay type: cell-based; details: for EC50: Homo sapiens, NALM-6
Method: Mitochondrial membrane potential (Δψm) was measured using two dyes including a lipophillic cation 5,5′,6,6′-tetrachloro-1,1′,3,3′-tetraethlybenzimidazolylcarbocyanine iodide (JC-1) and a cyanine dye, 1,1′,3,3,3′,3′-hexamethylindodicarbocyanine iodide (DiIC1 (27-29)) obtained from Molecular Probes (Eugene, Oreg.). JC-1 is a monomer at 527 nm after being excited at 490 nm; with polarization of Δψm, J-aggregates are formed that shift emission to 590 nm (30). This can be detected on a flow cytometer by assessing the green signal (at 527 nm) and green-orange signal (at 590 nm) simultaneously, creating an index of the number of cells polarized and depolarized mitochondria. DiIC1, a cyanine dye which is amphioatheic and cationic, concentrates in energized mitochondria and has been used in a variety of studies to measure the mitochondrial membrane potential (Fujii, H., et al., Histochem J. 29: 571-581, 1997; Mancini, M., et al., J. Cell Biol. 138: 449-469, 1997; and Petit, P. X., et al., J. Cell Biol. 130: 157-167, 1995). Cells were also stained with DiIC1 at 40 nM concentration for 30 min in the dark as described for JC-1. The cells were analyzed using a Vantage Becton Dickinson (San Jose, Calif.) cell sorter equipped with HeNe laser with excitation at 635 nm and the fluorescence was collected at 666 nm.
To test the cytotoxicity of compound 6 against JAK-3 expressing human leukemia cells, leukemic cells were exposed to this JAK3 inhibitor and monitored for apoptosis-associated changes in mitochondrial membrane potential (Δψm) and mitochondrial mass using specific fluorescent mitochondrial probes and multiparameter flow cytometry. To measure changes in Δψm, DiIC1 (which accumulates in energized mitochondria) was used, whereas the mitochondrial mass was determined by staining the cells with NAO, a fluorescent dye that binds to the mitochondrial inner membrane independent of energetic state. Treatment of NALM-6 leukemia cells with compound 6 at 7.4 μg/ml (25 μM) to 60 μg/ml (200 μM) for 24 h or 48 h increased the number of depolarized mitochondria in a concentration- and time-dependent manner as determined by flow cytometry using DiIC1 (27-29) (FIG. 7A). […] To further confirm this relative change in Δψm, we used JC-1, a mitochondrial dye, which normally exists in solution as a monomer emitting green fluorescence and assumes a dimeric configuration emitting red fluorescence in a reaction driven by mitochondrial transmembrane potential (Smiley, S. T., et al., Proc. Natl. Acad. Sci. U.S. A. 88: 3671-3675, 1991). Thus, the use of JC-1 allows simultaneous analysis of mitochondrial mass (green fluorescence) and mitochondrial transmembrane potential (red/orange fluorescence). After treatment of NALM-6 cells with compound 6 at increasing concentrations ranging from 25 μM to 200 μM and with increasing duration of exposure of 24 h or 48 h, we observed a progressive dissociation between Δψm and mitochondrial mass, with decrement in JC-1 red/orange fluorescence without a significant corresponding drop in JC-1 green fluorescence (FIG. 7C&D).

C57BL/6 splenocytes = assay: Splenocyte apoptosis (TUNEL, flow cytometry); assay type: cell-based, mouse; details: 20 h
Method: C57BL/6 splenocytes (3×10^6/ml) were cultured in 24-well plate for 20 h in 500 μl of RPMI-1640 under the conditions described above. […] Apoptotic cell death was detected by TUNEL, using InSitu Cell Detection Kit, Fluorescein (Boehringer Mannheim, Indianapolis, Ind.). After the culture period, cells were washed, fixed, permeabilised and stained following manufacturer's instructions and apoptosis was analyzed by flow cytometry, using FACS Calibur (Becton Dickinson, San Jose, Calif.).

COc1cc2ncnc(Nc3ccc(O)cc3)c2cc1OC [WHI-P131, 4-(4′-hydroxyl-phenyl)-amino-6,7-dimethoxyquinazoline]
JC-1 green fluorescence (mitochondrial mass) ([1]; 200 μM × 48 hours): 99.8%
fraction of DiIC1-negative cells with depolarized mitochondria ([1]; 200 μM, 48 hours): 81.6%
fraction of JC-1 red/orange fluorescence-negative cells ([1]; 200 μM, 48 hours): 16.9%
EC50 ([1]; 24 hour treatment, read-out: EC50, depolarization of mitochondria (decreased DiIC1 staining)): 79.3 µM
EC50 ([1]; 24 hour treatment, read-out: EC50, depolarization of mitochondria (decreased JC-1 red/orange fluorescence)): 94.2 µM
EC50 ([1]; 48 hour treatment, read-out: EC50, depolarization of mitochondria (decreased DiIC1 staining)): 58.4 µM
EC50 ([1]; 48 hour treatment, read-out: EC50, depolarization of mitochondria (decreased JC-1 red/orange fluorescence)): 50.4 µM
apoptotic cell death of splenocytes (TUNEL-positive) (C57BL/6 splenocytes; 0.1 and 1 μg/ml): does not differ from control cells
apoptotic cell death of splenocytes (TUNEL-positive) (C57BL/6 splenocytes; 10 and 100 μg/ml): significantly increased
